Assay [1] relates to gastrointestinal stromal tumor. Put plainly: CD56+ NK cell tumor:stroma ratio by IHC in tumor tissue culture. The class given is cell-based, human. To be noted: Patient 1, gastrointestinal stromal tumor; control ratio 3.
Protocol: The spatial heterogeneity of CD56+ lymphocytes (NK) in areas of tumor vs stroma in pairs of tissues (for control and treatment conditions) from each of a number of patients cultured in the tumor microenvironment platform and treated with various conventional and immuno-modulatory therapies was investigated. IHC analysis for CD56+ cells in slices of tissues under treatment and control conditions was performed, and the number of CD56+ cells in tumor and stromal regions was determined (FIG. 2A). M-score based on tumor-associated markers was determined for each of the tissue pairs as previously described. The ratio of CD56+ cells in areas of tumor cells vs areas of stroma in untreated and drug pressure conditions from the tissue pairs was calculated (FIG. 2B), and the fold change from vehicle to treatment conditions for each pair was determined and binned by M-score >25 and M-score ≤25 (FIG. 2C).
The predictive power of the change in spatial heterogeneity of CD56+NK cells in areas of tumor vs stroma under pressure from treatment with anticancer drug regimens was evaluated. […]
Assay [2] has as its system gastrointestinal stromal tumor. Put plainly: M-score (sensitivity index) from tumor-associated marker assays on tumor tissue culture. The class given is cell-based, human. Particulars: Patient 1, gastrointestinal stromal tumor.
Protocol: The tumor tissue cultures were also evaluated using standard assays for tumor proliferation, tumor cell death, tumor morphology, and tumor cell viability as previously described, including tetrazolium salt WST-1 viability assay; LDH release; ATP uptake; glucose uptake; Caspase 3, Caspase 8, and Ki67 expression; and H&E staining. The results of the assays for tumor-associated markers were used to generate assessment scores that were input into a machine-trained algorithm to generate a clinical outcome predictor in the form of an “M-score” for each patient.
M-score based on tumor-associated markers was determined for each of the tissue pairs as previously described.
(§1) The M-score based on tumor-associated markers and tumor:stroma ratio of CD56+ cells in tumor tissue cultures under control conditions or under pressure from treatment with anticancer drug regimens was determined as described above for 3 different patients whose clinical outcome in response to the respective treatment was known.
Assay [3] has as its system gastrointestinal stromal tumor. Put plainly: Known clinical outcome of the patient in response to the treatment. The class given is in vivo, human. Particulars: Patient 1, gastrointestinal stromal tumor.
Protocol: as §1
Assay [4] relates to Human lung cancer sections. Put plainly: Patient-derived ex-vivo tumor explant culture on tumor microenvironment platform; H&E and IHC for cleaved caspase 3, MICA/B and CD56. The class given is cell-based. To be noted: cultured 72 hours in tumor microenvironment platform, IHC, FIG. 1. On the procedure: The relevance of changes in the immune contexture of the tumor tissue culture microbed for a non-immunmodulatory agent, either as monotherapy or in combination with an immunomodulatory agent, was examined. Human lung cancer sections from the same patient cultured for 72 hours in the tumor microenvironment platform with gefitinib (a small molecule kinase inhibitor) alone, osimertinib (another small molecule kinase inhibitor)+Pembrolizumab, or vehicle control were assayed for H&E staining and cleaved caspase 3, MICA/B (cell surface ligands that bind immunoreceptors present on natural killer (NK) cells), and CD56 (marker of NK cells) expression.

These results are taken from patent publication US20190361006A1, “METHOD OF PREDICTING CLINICAL OUTCOME OF ANTICANCER AGENTS” (MITRA RXDX, INC., priority 2017, published 2019).

Consider `CC[C@@]1(O)C(=O)OCc2c1cc1n(c2=O)Cc2cc3c(CN(C)C)c(O)ccc3nc2-1` [topotecan], for which, in assay [1], the “Treatment CD56+ tumor:stroma ratio” value is recorded as 5. Moreover, in assay [2], the M-score result is recorded as “(M-score = 36)” and the M-score prediction entry is given as “Responder”. Besides, in assay [3], the Clinical response entry is listed as “Responder”.

For `COc1cc2ncnc(Nc3ccc(F)c(Cl)c3)c2cc1OCCCN1CCOCC1` [gefitinib], the “Cleaved caspase 3 expression” value in assay [4] (vs vehicle control) is reported as “significantly increased”. Moreover, in assay [4] (vs vehicle-treated), the “infiltration of NK cells (CD56)” value is “increase” and the “tumor cell MICA/B expression” value is “increase”.
